Like-named read-outs stand apart in the source and are kept apart here.
Experiments:
[1] = cited from earlier work
[2] = cited from earlier work; remark: listed apart in the source
[3] = Solubility; assay type: physicochemical; settings: 25° C. and pH 4.3

Compound | solubility in water ([1]; 25° C.) | solubility in common organic solvents ([1]; acetone, alcohol and xylene) | pKa (first of three printed) [2] | pKa (second of three printed) [2] | pKa (third of three printed) [2] | solubility in water ([1]; 25° C. and pH 4.3) | solubility in water as equivalent PMG-acid ([3]; per 1000 g water) | weight percent "acid" in the saturated solution ([3]; saturated aqueous solution)
O=C(O)CNCP(=O)(O)O [glyphosate, N-phosphonomethylglycine] | 11.6 grams per liter of water | insoluble | 2.74 | 5.63 | 10.18 | – | – | –
CC(C)N.O=C(O)CNCP(=O)(O)O [isopropylamine salt of glyphosate] | – | – | – | – | – | 1050 grams of salt in a liter of water | 778 grams of equivalent PMG-acid per liter | 37.95%

Reference: US20060194699A1, “Sprayable non-aqueous, oil-continuous microemulsions and methods of making same” (priority 2003, published 2006)
